Inconclusive results and toxic doses are left out. No stated cut-off is given here; in the data, active means T/C of 150% or more; inactive means T/C below 125%.
System: L1210 leukemia ip in BDF1 mice, survival T/C
Test: NCI In Vivo Anticancer Drug Screen. Data for tumor model L1210 Leukemia (intraperitoneal) in B6D2F1 (BDF1) mice
Settings: endpoint: mean survival time, higher = longer survival
Outline: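 Value reflects the ratio of survival in compound-treated mice to survival in vehicle-treated controls, with both groups carrying the same transplanted tumor.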

[1] = dose: 25.0 mg/kg/injection, schedule: Q01DX009 (ip), vehicle: saline with Tween-80
[2] = dose: 50.0 mg/kg/injection, schedule: Q04DX003 (ip), vehicle: saline with Tween-80
[3] = dose: 100.0 mg/kg/injection, schedule: Q01DX009 (ip), vehicle: saline with Tween-80
[4] = dose: 100.0 mg/kg/injection, schedule: Q04DX003 (ip), vehicle: saline with Tween-80
[5] = dose: 200.0 mg/kg/injection, schedule: Q04DX003 (ip), vehicle: saline with Tween-80
[6] = dose: 50.0 mg/kg/injection, schedule: Q04DX003 (ip), vehicle: Klucel (hydroxypropylcellulose) (HPC)
[7] = dose: 100.0 mg/kg/injection, schedule: Q01DX001 (ip), vehicle: Klucel (hydroxypropylcellulose) (HPC)
[8] = dose: 100.0 mg/kg/injection, schedule: Q04DX003 (ip), vehicle: Klucel (hydroxypropylcellulose) (HPC)
[9] = dose: 200.0 mg/kg/injection, schedule: Q01DX001 (ip), vehicle: Klucel (hydroxypropylcellulose) (HPC)
[10] = dose: 200.0 mg/kg/injection, schedule: Q04DX003 (ip), vehicle: Klucel (hydroxypropylcellulose) (HPC)
[11] = dose: 400.0 mg/kg/injection, schedule: Q01DX001 (ip), vehicle: Klucel (hydroxypropylcellulose) (HPC)
[12] = dose: 100.0 mg/kg/injection, schedule: Q01DX001 (ip), vehicle: saline
[13] = dose: 200.0 mg/kg/injection, schedule: Q01DX001 (ip), vehicle: saline
[14] = dose: 400.0 mg/kg/injection, schedule: Q01DX001 (ip), vehicle: saline
[15] = dose: 75.0 mg/kg/injection, schedule: Q01DX001 (ip), vehicle: saline
[16] = dose: 150.0 mg/kg/injection, schedule: Q01DX001 (ip), vehicle: saline
[17] = dose: 400.0 mg/kg/injection, schedule: Q04DX003 (ip), vehicle: saline with Tween-80

Measured: T/C

CC(=O)N1c2ccccc2Sc2cc(C(O)(C(F)(F)F)C(F)(F)F)ccc21
inactive: [1] 95 % of control | dose: 50.0 mg/kg/injection, schedule: Q01DX009 (ip), vehicle: saline with Tween-80 95 % of control | [2] 95 % of control | [3] 95 % of control | [4] 91 % of control | [5] 91 % of control

CS(=O)(=O)OC1CCCCCCC1OS(C)(=O)=O (stereo unspecified)
inactive: [6] 103 % of control | [7] 98 % of control | [8] 104 % of control | [9] 98 % of control | [10] 98 % of control | [11] 104 % of control | dose: 400.0 mg/kg/injection, schedule: Q04DX003 (ip), vehicle: Klucel (hydroxypropylcellulose) (HPC) 104 % of control

C#CCOCCC(C(=O)OCC)C(=O)OCC
inactive: dose: 100.0 mg/kg/injection, schedule: Q01DX009 (ip), vehicle: saline 96 % of control | dose: 200.0 mg/kg/injection, schedule: Q01DX009 (ip), vehicle: saline 91 % of control | dose: 400.0 mg/kg/injection, schedule: Q01DX009 (ip), vehicle: saline 102 % of control

COc1cc(Br)c(CC(=O)c2cn(C(=O)Cc3cc(OC)c(OC)cc3Br)c3ccc(Br)cc23)cc1OC
inactive: dose: 50.0 mg/kg/injection, schedule: Q01DX001 (ip), vehicle: saline 106 % of control | [12] 96 % of control | [13] 102 % of control | [14] 96 % of control

CC(=O)Nc1ccc(SC2(Sc3ccc(NC(C)=O)cc3)c3ccccc3-c3ccccc32)cc1
inactive: [12] 92 % of control | [13] 98 % of control | [14] 100 % of control

O=C(O)c1ccc(CCCCl)cc1
inactive: dose: 12.5 mg/kg/injection, schedule: Q01DX001 (ip), vehicle: Klucel (hydroxypropylcellulose) (HPC) 98 % of control | dose: 25.0 mg/kg/injection, schedule: Q01DX001 (ip), vehicle: Klucel (hydroxypropylcellulose) (HPC) 103 % of control | dose: 50.0 mg/kg/injection, schedule: Q01DX001 (ip), vehicle: Klucel (hydroxypropylcellulose) (HPC) 94 % of control

Cc1cc(C)c(C(=O)OCCN(C)C)c(C)c1
inactive: [15] 110 % of control | [16] 98 % of control

CCCCOC(=O)c1ccc(NC(=O)Nc2cccc(F)c2)cc1
inactive: [3] 95 % of control

O=c1oc2c(-c3ccccc3)cccc2c(O)c1-c1ccccc1
inactive: dose: 25.0 mg/kg/injection, schedule: Q04DX003 (ip), vehicle: saline with Tween-80 96 % of control | [2] 101 % of control | [4] 93 % of control | dose: 100.0 mg/kg/injection, schedule: Q04DX003 (ip), vehicle: saline 95 % of control | dose: 200.0 mg/kg/injection, schedule: Q04DX003 (ip), vehicle: saline 93 % of control | dose: 400.0 mg/kg/injection, schedule: Q04DX003 (ip), vehicle: saline 93 % of control

C=CC(=O)NCCN(C)C
inactive: [15] 104 % of control | [16] 93 % of control | dose: 300.0 mg/kg/injection, schedule: Q01DX001 (ip), vehicle: saline 104 % of control

OC1C2CCC(C2)C1C(O)(C(F)(F)Cl)C(F)(F)Cl (stereo unspecified)
inactive: [4] 93 % of control | [5] 92 % of control | [17] 97 % of control

O=Cc1cc(Br)c(O)c(Br)c1
inactive: [6] 100 % of control | [8] 101 % of control | [10] 100 % of control

O=C(CBr)c1ccc(I)cc1
inactive: dose: 3.13 mg/kg/injection, schedule: Q01DX009 (ip), vehicle: saline with Tween-80 92 % of control | dose: 6.25 mg/kg/injection, schedule: Q01DX009 (ip), vehicle: saline with Tween-80 95 % of control | dose: 12.5 mg/kg/injection, schedule: Q01DX009 (ip), vehicle: saline with Tween-80 97 % of control | [1] 100 % of control | dose: 100.0 mg/kg/injection, schedule: Q01DX001 (ip), vehicle: carboxymethylcellulose (CMC) 91 % of control | dose: 200.0 mg/kg/injection, schedule: Q01DX001 (ip), vehicle: carboxymethylcellulose (CMC) 101 % of control

CN(C)Cc1c[nH]c2c1S/C(=C/c1ccccc1)C2=O
inactive: [7] 105 % of control | [9] 96 % of control | [11] 100 % of control

Oc1ccc2ccccc2c1Sc1c(O)ccc2ccccc12
inactive: [4] 101 % of control | [5] 101 % of control

CC(=O)N1C(=O)NC(=O)C1(C)c1ccco1 (stereo unspecified)
inactive: [3] 103 % of control | [4] 94 % of control | dose: 200.0 mg/kg/injection, schedule: Q01DX009 (ip), vehicle: saline with Tween-80 100 % of control | [5] 97 % of control | dose: 400.0 mg/kg/injection, schedule: Q01DX009 (ip), vehicle: saline with Tween-80 97 % of control | [17] 105 % of control

From PubChem BioAssay AID248 (DTP/NCI, 2004)
